Reference: patent US8143393B2, “Substituted 4-amino-pyrrolotriazine derivatives useful for treating hyper-proliferative disorders and diseases associated with angiogenesis” (Bayer HealthCare LLC, priority 2005, dated 2012)
pIC50: −log10 of the molar value.

How the values were obtained:
FGFR-1 = molecular target: T1, FGFR-1 (Homo sapiens, UniProt P11362); assay: FGFR-1 TR-FRET biochemical assay; details: 0.6 uM ATP, 5 nM FGFR1-GST; bounds given in nM
T1 construct: GST; made in house
How it was run: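 FGFR1-GST (5 nM) was incubated with poly GT-biotin (25 nM) and 0.6 uM ATP in HEPES pH 7.5/MgCl2 with 1% DMSO for 1 h at room temperature. Phosphorylation was read by LANCE TR-FRET (Eu-anti-pTyr/SA-APC, 665/615 ratio). Percent inhibition was background-corrected against no-ATP wells, with final compound concentrations of 10 μM–0.128 nM.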

H460 = assay: Tumor cell proliferation (H460 proliferation assay); format: cell-based; details: Homo sapiens, NCI-H460, 72 h, Alamar Blue
Experimental: (§1) Human tumor cells (e.g., HCT116 or MDA-MB-231 cells), were seeded in a Costar 96-well plate at 3.0×10^3 cells/well and grown in 150 μl of RPMI complete media (Invitrogen Corporation, Grand Island, N.Y.) containing 10% fetal bovine serum (Hyclone, Logan, Utah) at 37° C. for 16 h in an incubator with 5% CO2. To each well, 50 μl of additional growth media containing 40 μM to 18 nM concentrations of compound with 0.4% DMSO was added. Cells were grown for another 72 h at 37° C. with 5% CO2. 20 μl of Alamar Blue (Trek Diagnostic Systems, Inc., Cleveland, Ohio) reagent was added to each well and incubated for 3 h at 37° C. Plates were read in a SpectraMax Gemini (Molecular Devices, CA) with 544 nm excitation and 590 nm emission wavelength. IC50 values were determined by linear regression analysis of log drug concentration versus percent inhibition.

[1] = tested on: histone 3 phosphorylation in colon carcinoma (HCT116); assay: p-Histone3 assay; format: cell-based; details: Homo sapiens, HCT-116, 24 h, HCT116, 24 h treatment; for IC50: bounds given in μM; for pIC50: lower bound of the bin 'greater than 500 nM but less than 5 μM'
Experimental: Compounds were assayed for the inhibition of histone 3 phosphorylation in colon carcinoma (HCT116). Briefly, 20,000 cells/well were seeded in a 96-well black-walled, poly-d-lysine plates in RPMI+10% FBS and incubated at 37° C. in 5% CO2 overnight. The following day, the cells were treated with compounds for 24 hours at 37° C. Following compound treatment; plates were centrifuged at 1000 rpm for 2 minutes and washed twice with 100 μl of cold sterile TBS. Cells were then fixed with cold 3.7% formaldehyde in TBS (4° C. for 1 hour) and then permeabolized with 0.1% Triton-X-100 in TBS (room temperature for 30 minutes). Plates were then washed with of 0.25% BSA-TBS and blocked with BSA solution for 1 hour at room temperature while shaking. The supernatant was removed and replaced with diluted primary antibody (anti-phospho-histone 3, serine 10, Cell Signaling) at 1:250 in 0.25% BSA-TBS and incubated overnight at 4° C. The plates were washed and treated with diluted secondary antibody (anti-rabbit Eu-labeled) at 1:10000 in 0.25% BSA-TBS (room temperature for 1 hour). The antibody solution was removed from each well and washed eight times. The wash buffer was replaced with 50 μl pre-warmed enhancement solution and mixed on the orbital shaker for 10 minutes. Fluorescence was detected with a Victor V Fluorescence Detector. The data are expressed as percent inhibition: % inhibition=100−((Signal with inhibitor−background)/(Signal without inhibitor−background))−100.

MDA-MB-231 cells = assay: Tumor cell proliferation (MDA-MB-231 proliferation assay); format: cell-based; details: Homo sapiens, MDA-MB-231, 72 h, Alamar Blue
Experimental: as §1

HCT116 cells = assay: Tumor cell proliferation (HCT116 proliferation assay); format: cell-based; details: Homo sapiens, HCT-116, 72 h, Alamar Blue
Experimental: as §1

[2] = lower bound of the bin 'greater than 500 nM but less than 4 μM'
[3] = upper bound of the bin 'greater than 500 nM but less than 4 μM'
[4] = lower bound of the bin 'greater than 500 nM but less than 3 μM'
[5] = upper bound of the bin 'greater than 500 nM but less than 3 μM'

T1 sequence (P11362 22-822): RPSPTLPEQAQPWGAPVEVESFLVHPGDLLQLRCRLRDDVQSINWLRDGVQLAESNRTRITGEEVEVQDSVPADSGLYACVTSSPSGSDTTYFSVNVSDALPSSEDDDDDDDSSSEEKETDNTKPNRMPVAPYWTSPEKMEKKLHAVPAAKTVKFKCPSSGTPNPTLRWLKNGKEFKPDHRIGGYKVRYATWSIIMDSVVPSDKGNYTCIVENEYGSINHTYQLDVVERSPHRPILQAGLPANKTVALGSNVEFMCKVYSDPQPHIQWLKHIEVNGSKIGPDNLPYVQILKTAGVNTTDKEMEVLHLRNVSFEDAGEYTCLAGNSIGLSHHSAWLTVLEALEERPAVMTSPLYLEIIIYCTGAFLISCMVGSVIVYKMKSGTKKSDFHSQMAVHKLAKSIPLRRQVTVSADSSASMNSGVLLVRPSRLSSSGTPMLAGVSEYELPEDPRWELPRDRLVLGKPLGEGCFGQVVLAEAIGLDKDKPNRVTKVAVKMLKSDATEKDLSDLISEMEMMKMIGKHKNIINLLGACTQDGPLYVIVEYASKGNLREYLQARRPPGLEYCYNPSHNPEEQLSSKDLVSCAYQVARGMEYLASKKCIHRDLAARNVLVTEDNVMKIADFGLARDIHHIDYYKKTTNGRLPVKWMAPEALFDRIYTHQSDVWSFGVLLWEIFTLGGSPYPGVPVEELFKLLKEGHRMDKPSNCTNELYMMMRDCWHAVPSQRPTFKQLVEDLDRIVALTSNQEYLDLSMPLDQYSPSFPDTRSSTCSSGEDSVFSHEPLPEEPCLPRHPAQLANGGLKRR

SMILES | IC50 (FGFR-1) | pIC50 (H460; [2]) | pIC50 (H460; [3]) | IC50 [1] | pIC50 [1] | pIC50 (MDA-MB-231 cells; [4]) | pIC50 (MDA-MB-231 cells; [5]) | pIC50 (HCT116 cells; [2]) | pIC50 (HCT116 cells; [3])
Nc1ncnn2c(CN3CCOCC3)cc(-c3ccc(NC(=O)Nc4cc(C(F)(F)F)ccc4F)c(F)c3)c12 [Example 1] | < 10 nM | < 6.30 | > 5.40 | – | – | – | – | – | –
Nc1ncnn2c(CN3CCOCC3)cc(-c3ccc(NC(=O)Nc4cc(C(F)(F)F)ccn4)c(F)c3)c12 [Example 8, N-{4-[4-amino-7-(morpholin-4-ylmethyl)pyrrolo[2,1-f][1,2,4]triazin-5-yl]-2-fluorophenyl}-N′-[4-(trifluoromethyl)pyridin-2-yl]urea] | < 10 nM | < 6.30 | > 5.40 | – | – | – | – | – | –
Cc1cc(-c2cc(CN3CCOCC3)n3ncnc(N)c23)ccc1NC(=O)Nc1cc(C(F)(F)F)ccc1F [Example 25, N-{4-[4-amino-7-(morpholin-4-ylmethyl)pyrrolo[2,1-f][1,2,4]triazin-5-yl]-2-methylphenyl}-N′-[2-fluoro-5-(trifluoromethyl)phenyl]urea] | < 10 nM | – | – | < 5 µM | < 6.30 | – | – | – | –
Nc1ncnn2c(CN3CCOCC3)cc(-c3ccc(NC(=O)Nc4cccc(C(F)(F)F)c4)cc3)c12 [Example 5, N-{4-[4-amino-7-(morpholin-4-ylmethyl)-pyrrolo[2,1-f][1,2,4]triazin-5-yl]phenyl}-N′-[3-(trifluoromethyl)phenyl]urea] | – | < 6.30 | > 5.40 | – | – | < 6.30 | > 5.52 | < 6.30 | > 5.40
Nc1ncnn2c(CN3CCOCC3)cc(-c3ccc(NC(=O)Nc4ccc(F)c(C(F)(F)F)c4)cc3)c12 [Example 6, N-{4-[4-amino-7-(morpholin-4-ylmethyl)-pyrrolo[2,1-f][1,2,4]triazin-5-yl]phenyl}-N′-[4-fluoro-3-(trifluoromethyl)phenyl]urea] | < 10 nM | < 6.30 | > 5.40 | – | – | < 6.30 | > 5.52 | < 6.30 | > 5.40
Nc1ncnn2c(CN3CCOCC3)cc(-c3cc(F)c(NC(=O)Nc4cc(C(F)(F)F)ccc4F)cc3F)c12 [Example 15, N-{4-[4-amino-7-(morpholin-4-ylmethyl)pyrrolo[2,1-f][1,2,4]triazin-5-yl]-2,5-difluorophenyl}-N′-[2-fluoro-5-(trifluoromethyl)phenyl]urea] | < 10 nM | – | – | < 5 µM | < 6.30 | – | – | – | –
COc1ccc(C(C)(C)C)cc1NC(=O)Nc1ccc(-c2cc(CN3CCOCC3)n3ncnc(N)c23)cc1 [Example 44, N-{4-[4-amino-7-(morpholin-4-ylmethyl)pyrrolo[2,1-f][1,2,4]triazin-5-yl]phenyl}-N′-(5-tert-butyl-2-methoxyphenyl)urea] | 10 to 100 nM | – | – | 5 to 10 µM | – | – | – | – | –
Nc1ncnn2c(CN3CCOCC3)cc(-c3ccc(NC(=O)Nc4cc(C(F)(F)F)ccn4)cc3)c12 [Example 3, N-{4-[4-amino-7-(morpholin-4-ylmethyl)pyrrolo[2,1-f][1,2,4]triazin-5-yl]phenyl}-N′-[4-(trifluoromethyl)pyridin-2-yl]urea] | < 10 nM | < 6.30 | > 5.40 | – | – | < 6.30 | > 5.52 | < 6.30 | > 5.40
Nc1ncnn2c(CN3CCOCC3)cc(-c3ccc(NC(=O)Nc4cc(C(F)(F)F)ccc4F)cc3)c12 [Example 4, N-{4-[4-amino-7-(morpholin-4-ylmethyl)-pyrrolo[2,1-f][1,2,4]triazin-5-yl]phenyl}-N′-[2-fluoro-5-(trifluoromethyl)phenyl]urea] | < 10 nM | – | – | < 5 µM | < 6.30 | < 6.30 | > 5.52 | < 6.30 | > 5.40
